Data: patent publication US20090202499A1, “Human Telomerase Reverse Transcriptase Peptides” (priority 2006, published 2009)
“Also recorded” adds a separate entry of the source. Read-outs that look alike come from different tables or passages of the source.

Experiments:
[1] = system: RMA-B7 cells pulsed with the homologous hTRT peptide; experiment: peptide immunization of HLA-B7 Tg mice, 51Cr-release assay; assay type: in vivo; conditions: 100 micrograms peptide + HBV helper peptide in IFA, s.c.
Description: FIG. 1. […] HLA-B7 Tg mice were vaccinated with 100 micrograms of individual hTRT peptide together with 120 micrograms of HBV helper peptide in IFA. Ten days after immunization, spleen lymphocytes were restimulated in vitro with peptide and fresh, irradiated syngeneic APC. Restimulations were performed on a weekly basis. A standard 4 hour ^51Cr-release assay was performed on day 5 after in vitro restimulation, using RMA-B7 cells pulsed with the homologous hTRT peptide as targets and an E:T ratio of 25:1. Results are expressed as the mean specific lysis plus or minus standard deviation of responder mice only, whose number is indicated in each panel. Tests were run in duplicate.
In vivo immunization procedures. Peptide immunization. HLA B7 transgenic mice (28) were injected s.c. at the base of the tail with 100 micro-grams of hTRT peptides along with 120 micro-grams of I-A^b MHC Class II helper peptide 128-140 of the hepatitis B virus core protein in incomplete Freunds' adjuvant as described previously (12). Long-term CTL lines were maintained in culture by weekly restimulation with irradiated, peptide-pulsed syngeneic spleen cells in RPMI-1640 medium containing 10% heat inactivated fetal bovine serum, 2 mM glutamine, 5×10^−5 M 2-Mercaptoethanol, 50 micro-grams/ml streptomycin, and 50 micro-grams/ml penicillin (complete medium) and supplemented with 40 IU/ml of recombinant human IL-2.
CTL assays. Both murine and human CTL were detected by the ^51Cr release assay performed as previously described (14). Briefly, HLA-B7^+ antigen presenting cells (RMA-B7 or T2-B7 cells) were labeled for 1 hr with 100 micro-Ci of Na2^51CrO4 (Perkin Elmer). Washed cells (5×10^3 per well) were mixed in 96-well plates in 100 micro-liters/well with each peptide (at 10 micro-grams/ml or lower concentration) and 100 micro-liters of the CTL effector cells (at various E:T ratio) in RPMI medium. The plates were incubated for 4-5 hrs at 37° C. (5% CO2). The supernatants were harvested and counted on a Wallac 1470 Wizard Gamma counter. The percent lysis was calculated as 100 (cpmexp−cpmspont)/(cpmmax−cpmspont).
In order to assign immunogenicity to each of the peptides and correlate this property with the binding characteristics and the scores of the predictive algorithms, we immunized HLA-B7 Tg mice (28). Ten to eleven days after immunization mice were sacrificed, the spleen harvested and splenocytes put in culture with LPS/Dextran activated APC, and tested in a 4 hour ^51Cr-release assay. As shown, only five out of seven peptides yielded a meaningful, specific CTL response even after a third cycle of in vitro restimulation (FIG. 1). All immunogenic peptides induced a response from the first in vitro restimulation and this response increased upon subsequent rounds of antigen restimulation. As noted the lysis of peptide-pulsed RMA-B7 target cells increased at each round of in vitro restimulation. No lysis occurred on RMA-B7 cells not pulsed with peptide. Thus, the in vivo results together with the actual measure of the avidity of HLA-B7 binding avidity distinguished two groups of 9mer hTRT peptides.

B*3501 = B*3501 (Homo sapiens, UniProt P01889, A329T/A93T/A95T/C349S/D201E/D98Y/E176V/E187L/E204Q/E69T/I218V/K202T/L119I/Q94N/R155S/R180L/S121R/S35A/S48A/T118I/V127L/V306I/V36M/Y140S/Y91F); experiment: HLA-B7 supertype binding assay
Description: (§1) Supertype analysis. Quantitative assays to measure the binding affinity of peptides to purified HLA B7-supertype molecules (B*0702, B*3501, B*5101, B*5301, B*5401) and B*0801 were based on the inhibition of binding of a radiolabeled standard peptide, and were performed as previously described (22, 35). Briefly, 1-10 nM of radiolabeled peptide was co-incubated at room temperature with 1 microM to 1 nM of purified MHC in the presence of 1-3 μM human beta2-microglobulin (Scripps Laboratories, San Diego, Calif.) and a cocktail of protease inhibitors. After a two-day incubation, binding of the radiolabeled peptide to the corresponding MHC class I molecule was determined by capturing MHC/peptide complexes on Greiner Lumitrac 600 microplates (Greiner Bio-one, Longwood, Fla.) coated with the W6/32 antibody, and measuring bound counts per minute (cpm) using the TopCount microscintillation counter (Packard Instrument Co.). […] Under the conditions utilized, where [label]<[MHC] and IC50≧[MHC], the measured IC50 values are reasonable approximations of the true Kd values.
(§2) HLA molecules are highly polymorphic posing problems to the identification of peptides, which could be used to cover the totality of the human population. However, HLA alleles can be clustered into a relatively small number of groups termed supertypes (21). The HLA-B7 supertype includes ten alleles (22). Here, we decided to test the selected hTRT peptides for their ability to bind five out of ten members of the HLA-B7 supertype (B*3501, B*5101, B*5301, B*5401) and B*0801. The B*0801 allele shares binding features with B*0702, although is not officially part of the HLA-B7 supertype. This analysis had the purpose to further narrow the selection of putative HLA-B7 immunogens based on supertype binding (Table V).

B*5401 = B*5401 (Homo sapiens, UniProt P01889, A329T/C349S/D138N/D201E/E176V/E187T/E204Q/E69G/I76V/K202T/L119W/R155S/R180L/S121T/S35A/S48A/V127L/V306I/V36M/Y140L); experiment: HLA-B7 supertype binding assay
Description: as §1, §2

B*5301 = B*5301 (Homo sapiens, UniProt P01889, A329T/A93T/A95T/C349S/D201E/D98Y/E176V/E187L/E204Q/E69T/G107R/I218V/K202T/L105A/L119I/N104I/Q94N/R106L/R155S/R180L/S101N/S121R/S35A/S48A/T118I/V127L/V306I/V36M/Y140S/Y91F); experiment: HLA-B7 supertype binding assay
Description: as §1, §2

B*5101 = B*5101 (Homo sapiens, UniProt P01889, A329T/A93T/A95T/C349S/D138N/D201E/D98Y/E187L/E204Q/E69T/G107R/I218V/K202T/L105A/L119W/N104I/Q94N/R106L/R155S/R180L/S101N/S121T/S35A/S48A/V306I/V36M/Y195H/Y91F); experiment: HLA-B7 supertype binding assay
Description: as §1, §2

B*0801 = B*0801 (Homo sapiens, UniProt P01889, A93T/A95T/D138N/E176V/E187T/K202T/Q94N/R180D/S35A/V36M/Y33D/Y91F); experiment: biochemical
B*0702 = B*0702 (Homo sapiens, UniProt P01889); experiment: competition solid-phase radioimmunoassay on purified HLA molecule; assay type: binding
Description: as §1
Next, we assessed the actual binding avidity for HLA-B7 (HLA-B*0702). Two independent assays were used: binding stabilization assay on T2-B7 cells by flow cytometry (12) and a competitive solid-phase radioimmunoassay on immobilized purified HLA-B7 molecule (35).

CSCC[C@H](NC(=O)[C@H](CC(N)=O)NC(=O)[C@H](CCCNC(=N)N)NC(=O)CNC(=O)[C@H](C)N)C(=O)N[C@@H](CCCNC(=N)N)C(=O)N[C@@H](CCCNC(=N)N)C(=O)N[C@@H](CCCCN)C(=O)N[C@@H](CC(C)C)C(=O)O [p966]
immunogenicity in vivo, CTL response after peptide immunization (in words) [1]: non-immunogenic; also recorded: poor immunogenicity; also recorded: repeated negative results
IC50 (B*3501): > 50 µM
IC50 (B*5401): 34.1 µM
IC50 (B*5301): > 50 µM
IC50 (B*5101): > 50 µM
IC50 (B*0801): > 50 µM
IC50 (B*0702): > 50000 nM
IC50 (B*0702; read-out: HLA class I binding capacity (IC50 nM) B*0702, Table V, purified MHC, radiolabeled standard peptide): > 50000 nM
